Data on 1 compound can be found in patent US6814953B2, “Bronchodilating compositions and methods” (Dey L.P., priority 2001, dated 2004).

As a reminder, the solubility is the dissolved amount per volume that the medium holds. Low readings indicate little dissolved substance, high ones much dissolved substance.

In brackets after ≈: the same amount, converted by molar mass.

The conditions of data set [1]: patients with reversible obstructive respiratory diseases; cited from earlier work.
A short description of data set [2]: Decomposition kinetics of formoterol in aqueous solution (stability testing by HPLC at accelerated temperatures). In kind it is physicochemical. The source says:
In the embodiments herein, the compositions have a pH of about 2.0 to about 8.0. In other embodiments, the compositions have a pH of about 4.0 to about 6.0, or about 4.5 to about 5.5. In certain of the above embodiments, the compositions are formulated at a pH of about 4, 4.4 or 4.6 up to about 5.5, 5.7 or 6. In other embodiments, the pH is about 5.0.
In other of the above embodiments, the compositions further contain a buffer, including, but not limited to, citric acid/phosphate, acetate, barbital, borate, Britton-Robinson, cacodylate, citrate, collidine, formate, maleate, Mcllvaine, phosphate, Prideaux-Ward, succinate, citrate-phosphate-borate (Teorell-Stanhagen), veronal acetate, MES (2-(N-morpholino)ethanesulfonic acid), BIS-TRIS (bis(2-hydroxyethyl)iminotris(hydroxymethyl)methane), ADA (N-(2-acetamido)-2-iminodiacetic acid), ACES (N-(carbamoylmethyl)-2-aminoethanesulfonic acid), PIPES (piperazirie-N,N′-bis(2-ethanesulfonic acid)), MOPSO (3-(N-morpholino)-2-hydroxypropanesulfonic acid), BIS-TRIS PROPANE (1,3-bis(tris(hydroxymethyl)methylamino)propane), BES (N,N-bis(2-hydroxyethyl)-2-aminoethanesulfonic acid), MOPS (3-(N-morpholino)propanesulfonic acid), TES (N-tris(hydroxymethyl)methyl-2-aminoethanesulfonic acid), HEPES (N-(2-hydroxyethyl)piperazine-N′-(2-ethanesulfonic acid), DIPSO (3-(N,N-bis(2-hydroxyethyl)amino)-2-hydroxypropanesulfonic acid), MOBS (4-(N-morpholino)butanesulfonic acid), TAPSO (3-(N-tris(hydroxymethyl)methylamino)-2-hydroxypropanesulfonic acid), TRIZMAO (tris(hydroxymethylaminomethane), HEPPSO (N-(2-hydroxyethyl)piperazine-N′-(2-hydroxypropanesulfonic acid), POPSO (piperazine-N,N′-bis(2-hydroxypropanesulfonic acid)), TEA (triethanolamine), EPPS (N-(2-hydroxyethyl)piperazine-N′-(3-propanesulfonic acid), TRICINE (N-tris(hydroxymethyl)methylglycine), GLY-GLY (glycylglycine), BICINE (N;N-bis(2-hydroxyethyl)glycine), HEPBS (N-(2-hydroxyethyl)piperazine-N′-(4-butanesulfonic acid)), TAPS (N-tris(hydroxymethyl)methyl-3-aminopropanesulfonic acid), AMPD (2-amino-2-methyl-1,3-propanediol), and/or any other buffers known to those of skill in the art. In one embodiment, the buffer is citric acid/phosphate buffer, acetate buffer, citrate buffer or phosphate buffer. In another embodiment, the buffer is a citrate buffer (citric acid/sodium citrate). […] Buffer concentrations for use herein include from about 0 or 0.01 mM to about 150 mM, or about 1 mM to about 20 mM. In one embodiment, the buffer concentration is about 5 mM. In another embodiment, the buffer concentration is about 1 mM to about 50 mM, or about 20 mM. […] The particular buffer and buffer concentration of a given composition for long term storage provided herein may be determined empirically using standard stability assays well known to those of skill in the art (see, e.g., the Examples).
The solutions were stored at 60° C.
(§1) Stability samples of the solutions prepared in EXAMPLES 1 and 2 were placed in scintillation vials with teflon-lined caps and stored in stability ovens at accelerated temperatures. At selected time points, aliquots of the samples were removed from the scintillation vials.

Data set [3] in a line: Estimated shelf-life of formoterol in the compositions (Arrhenius kinetics). In kind it is physicochemical. The note with it: in the compositions provided herein.
Excerpt: as §1

In the case of `COc1ccc(CC(C)NCC(O)c2ccc(O)c(NC=O)c2)cc1` (racemic) [formoterol, 2-hydroxy-5-((1RS)-1-hydroxy-2-(((1RS)-2-(p-methoxyphenyl)-1-methylethyl)amino)ethyl)formanilide], the “duration of bronchodilatory effect” value in data set [1] is “greater than 12 hours”. Moreover, in data set [1], the “onset of bronchodilatory effect” value is 1 to 3 min. Further, in data set [2] (60° C., buffer concentration 5 mM, ionic strength 0.05), the “pH at which decomposition in aqueous solution is slowest” value is listed as “about 5.0”. In addition, the “rate constant (kobs) for decomposition of an aqueous solution” value is “approximately 0.62 day^−1” in data set [2] (60° C., pH 3, buffer concentration 5 mM, ionic strength 0.05); around 0.11 day⁻¹ in data set [2] (60° C., pH 4, buffer concentration 5 mM, ionic strength 0.05); around 0.044 day⁻¹ in data set [2] (60° C., pH 5, buffer concentration 5 mM, ionic strength 0.05); around 0.55 day⁻¹ in data set [2] (60° C., pH 7, buffer concentration 5 mM, ionic strength 0.05). Further, the “effect of increasing buffer concentration from 5 mM to 20 mM on rate constant of decomposition” value in data set [2] (low and approximately neutral conditions (pH)) was “increased the rate constant of decomposition significantly”; in data set [2] (pH region of about 4.5 to about 5.5), “no noticeable differences in rate constant”. Moreover, the estimated shelf-life result in data set [3] (5° C.) is reported as “about 6.2 years”; in data set [3] (25° C.) it was “about 7.5 months”. The solubility in the data set “physchem” (aqueous buffer) is around 2200 µg/mL (≈ 6.39 mM); in the data set “physchem” (pH 3, aqueous buffer), around 4800 µg/mL (≈ 13.9 mM); in “physchem” (pH 4, aqueous buffer), around 3000 µg/mL (≈ 8.71 mM); in “physchem” (water) it was around 2000 µg/mL (≈ 5.81 mM).
